# Key:
# Assay type in all cases: cell-based, murine
# tyrosinase = experiment: Western blot of cytosolic tyrosinase protein; details: 2.5–20 µM, 24 h, cytosolic fraction, B16F10 cells
# Experimental: B16F10 cells were treated with five concentrations (0, 2.5, 5, 10, and 20 µM) of analog 2 for 24 h, washed twice with cold PBS, and then harvested. Pellets were then suspended in buffer A [NaBu, β-glycerophosphate, 1 M HEPES, 100 mM MgCl, 500 mM DTT, 100 mM NaF, 10 mM Na-orthovanadate, pepstatin, aprotinin, leupeptin, 1% NP-40, and PMSF], incubated on ice for 20 min, and then centrifuged at 12,000 rpm for 10 min at 4 °C. The supernatants that were obtained contained cytosolic fractions. The pellets were resuspended in buffer B [NaBu, β-glycerophosphate, 1 M HEPES, 5 M NaCl, 10 mM Na-orthovanadate, pepstatin, aprotinin, leupeptin, 100 mM NaF, 100 mM EDTA, and PMSF], incubated on ice for 30 min, and then centrifuged at 12,000 rpm for 20 min at 4 °C. The resultant supernatants contained nuclear fractions.
# Protein concentrations were determined using a BCA™ protein assay kit (Pierce, Rockford, IL, USA). Briefly, lysed samples were boiled for 10 min in gel-loading buffer (0.125 M Tris-HCl, pH 6.8, 4% SDS, 10% 2-mercaptoethanol, and 0.2% bromophenol blue) at a volume ratio of 1:1. […] The western blot data were quantified using CS Analyser 3.2 (Densitograph) image analysis software (http://www.attokorea.co.kr, accessed on 4 March 2022).
# TRP-2 = experiment: qRT-PCR of TRP-2 mRNA; details: versus non-treated controls, B16F10 cells
# Experimental: (§1) The total RNAs from the cells were purified using the RiboEx Total RNA solution (GeneAll Biotechnology, Seoul, Korea) and the cDNA was synthesized from the total RNA (2 µg) using SuPrimeScript RT Premix with random hexamer (GeNet Bio, Daejeon, Korea), according to the manufacturers’ instructions. Real-time qPCR was performed using SensiFASTTM SYBR® No-ROX dye (Bioline, London, UK) and a CFX Connect System (Bio-Rad Laboratories, Hercules, CA, USA). The qRT-PCR primers that are specifically for tyrosinase, TRP-1, TRP-2, and β-actin were obtained from Bioneer Inc. (Daejeon, Korea). The relative gene expressions were calculated using the standard curve method and β-actin as the internal control.
# TRP-1 = experiment: qRT-PCR of TRP-1 mRNA; details: versus non-treated controls, B16F10 cells
# Experimental: as §1
compound,measurement,setting,value
"O=C1/C(=C/c2ccc(O)c(O)c2)SC(=S)N1c1ccccc1 [Analog 2, (Z)-5-(3,4-Dihydroxybenzylidene)-3-phenyl-2-thioxothiazolidin-4-one]",tyrosinase protein level,tyrosinase,significantly and concentration-dependently reduced
same,TRP-2 mRNA expression level,TRP-2,significantly and concentration-dependently reduced
same,TRP-1 mRNA expression level,TRP-1,significantly and concentration-dependently reduced
